SMILES strings stand for the structures.

The text below walks through data of ChEMBL document CHEMBL1121613.

For the test, the target named is Adrenergic receptor alpha (Homo sapiens) (UniProt P35348+P08913+P18825+P25100+P35368+P18089). The test can be described thus: Blocking activity towards Alpha adrenergic receptor of rabbit aortic tissue preparation was determined. As to conditions: Oryctolagus cuniculus; target entry is the homologue from another species.

`C[C@H]1CN=C(Nc2c(Cl)cccc2Cl)N1` showed a -Log KB of 5.27.
As for `c1ccc(C[C@H]2CN=C(Cc3cccc4ccccc34)N2)cc1`, the -Log KB came out at 6.57.
`c1ccc(CC2NC[C@H](Cc3ccccc3)N2)cc1` (stereo partly drawn) gave a -Log KB of 5.
With `C[C@@H]1CN=C(Nc2c(Cl)cccc2Cl)N1` the figure was 5.08; with `C[C@H]1CN=C(Cc2cccc3ccccc23)N1`, 5.76; with `c1ccc(C[C@@H]2CN=C(Cc3cccc4ccccc34)N2)cc1`, 6.34.
The same measure for `C[C@@H]1CN=C(Cc2cccc3ccccc23)N1`: 5.6.
With `c1ccc(CC2NC[C@@H](Cc3ccccc3)N2)cc1` (stereo partly drawn) the figure was 4.98.
